Source: PMC5637554 (MedChemComm, 2017)

Target: MDM2 (Homo sapiens, UniProt Q00987)
Test: Fluorescence polarization
Format: binding
Conditions: FP; 4-chloro-phenyl anchor instead of 6-chloro-indole

Chain of MDM2 (Q00987 whole entry): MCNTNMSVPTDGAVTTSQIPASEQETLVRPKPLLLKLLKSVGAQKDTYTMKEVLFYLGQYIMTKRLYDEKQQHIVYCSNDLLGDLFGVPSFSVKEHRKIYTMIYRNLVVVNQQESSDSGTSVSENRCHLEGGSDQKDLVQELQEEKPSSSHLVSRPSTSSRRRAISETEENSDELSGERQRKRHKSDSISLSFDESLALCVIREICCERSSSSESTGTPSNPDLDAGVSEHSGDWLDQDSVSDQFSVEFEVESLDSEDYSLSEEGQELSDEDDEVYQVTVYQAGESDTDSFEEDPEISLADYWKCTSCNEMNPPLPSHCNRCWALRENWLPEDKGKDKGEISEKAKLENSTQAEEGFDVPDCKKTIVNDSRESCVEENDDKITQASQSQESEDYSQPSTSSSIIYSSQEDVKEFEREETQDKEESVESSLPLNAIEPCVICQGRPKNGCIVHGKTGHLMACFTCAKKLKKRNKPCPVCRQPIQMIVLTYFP

activity against MDM2/X: did not show any activity
SMILES: CC(C)(C)NC(=O)C(c1ccc(Cl)cc1)N1C(=O)CC1c1ccc(OCc2ccccc2)cc1 (stereo not shown) [Compound 2g]
